{"source": "patent US12343326B2", "about": "“Psychoactive medicines and their use for treating psychiatric and neurological conditions and disorders” (Transcend Therapeutics, Inc., priority 2021, dated 2025)", "assay_in_all_cases": "β-arrestin based GPCR screen (PathHunter / GPCRmax), antagonist mode", "key": {"168 GPCRs [1]": {"molecular_target": "168 GPCRs (Homo sapiens, UniProt Q9NSD7)"}, "168 GPCRs [2]": {"molecular_target": "168 GPCRs (Homo sapiens, UniProt P49190)", "sequence (P49190 25-550)": "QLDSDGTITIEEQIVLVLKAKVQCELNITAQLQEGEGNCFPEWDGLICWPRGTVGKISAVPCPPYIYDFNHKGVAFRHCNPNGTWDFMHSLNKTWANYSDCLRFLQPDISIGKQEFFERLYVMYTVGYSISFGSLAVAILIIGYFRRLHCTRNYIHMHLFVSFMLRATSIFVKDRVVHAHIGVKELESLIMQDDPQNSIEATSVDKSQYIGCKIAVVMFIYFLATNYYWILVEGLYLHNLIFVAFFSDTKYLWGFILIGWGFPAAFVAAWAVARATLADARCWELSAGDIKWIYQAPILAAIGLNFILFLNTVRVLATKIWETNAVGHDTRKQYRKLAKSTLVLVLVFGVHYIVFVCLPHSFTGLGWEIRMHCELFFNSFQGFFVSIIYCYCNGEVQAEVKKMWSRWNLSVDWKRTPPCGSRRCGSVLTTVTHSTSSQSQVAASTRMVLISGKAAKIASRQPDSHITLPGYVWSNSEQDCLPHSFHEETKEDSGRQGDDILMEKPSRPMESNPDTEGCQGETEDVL"}, "168 GPCRs [3]": {"molecular_target": "168 GPCRs (Homo sapiens, UniProt P23945)", "settings": "FSHR"}, "168 GPCRs [4]": {"molecular_target": "168 GPCRs (Homo sapiens, UniProt P21462)", "sequence (P21462 whole entry)": "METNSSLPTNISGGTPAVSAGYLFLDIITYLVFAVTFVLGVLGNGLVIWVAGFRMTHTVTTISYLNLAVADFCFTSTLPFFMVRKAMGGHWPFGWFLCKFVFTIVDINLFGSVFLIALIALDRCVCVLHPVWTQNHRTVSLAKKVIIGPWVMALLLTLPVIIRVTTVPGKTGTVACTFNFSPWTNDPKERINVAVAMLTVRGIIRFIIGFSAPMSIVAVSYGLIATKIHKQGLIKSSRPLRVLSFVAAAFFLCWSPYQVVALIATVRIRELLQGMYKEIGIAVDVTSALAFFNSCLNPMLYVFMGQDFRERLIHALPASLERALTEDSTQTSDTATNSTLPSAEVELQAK"}, "168 GPCRs [5]": {"molecular_target": "168 GPCRs (Homo sapiens, UniProt P41143)", "sequence (P41143 whole entry)": "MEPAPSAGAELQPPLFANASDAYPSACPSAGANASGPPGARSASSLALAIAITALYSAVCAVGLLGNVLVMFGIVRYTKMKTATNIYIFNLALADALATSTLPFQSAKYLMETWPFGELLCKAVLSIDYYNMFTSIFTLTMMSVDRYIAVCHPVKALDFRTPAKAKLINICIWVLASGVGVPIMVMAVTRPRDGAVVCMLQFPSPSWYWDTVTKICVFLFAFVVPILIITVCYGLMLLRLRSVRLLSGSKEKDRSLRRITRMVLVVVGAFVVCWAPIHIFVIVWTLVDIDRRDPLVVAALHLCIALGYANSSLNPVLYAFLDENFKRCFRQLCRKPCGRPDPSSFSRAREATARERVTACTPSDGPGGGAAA"}, "168 GPCRs [6]": {"molecular_target": "168 GPCRs (Homo sapiens, UniProt Q8NFJ6)"}, "168 GPCRs [7]": {"molecular_target": "168 GPCRs (Homo sapiens, UniProt P48145)", "sequence (P48145 whole entry)": "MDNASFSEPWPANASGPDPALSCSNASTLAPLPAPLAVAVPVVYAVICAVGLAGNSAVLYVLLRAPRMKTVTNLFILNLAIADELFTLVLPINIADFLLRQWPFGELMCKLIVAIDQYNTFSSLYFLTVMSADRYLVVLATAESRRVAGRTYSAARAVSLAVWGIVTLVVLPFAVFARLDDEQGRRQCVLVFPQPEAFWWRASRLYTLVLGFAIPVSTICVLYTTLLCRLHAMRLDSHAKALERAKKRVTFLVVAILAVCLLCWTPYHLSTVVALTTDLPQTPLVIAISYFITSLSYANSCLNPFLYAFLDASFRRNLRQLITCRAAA"}, "168 GPCRs [8]": {"molecular_target": "168 GPCRs (Homo sapiens, UniProt Q9HB89)", "sequence (Q9HB89 whole entry)": "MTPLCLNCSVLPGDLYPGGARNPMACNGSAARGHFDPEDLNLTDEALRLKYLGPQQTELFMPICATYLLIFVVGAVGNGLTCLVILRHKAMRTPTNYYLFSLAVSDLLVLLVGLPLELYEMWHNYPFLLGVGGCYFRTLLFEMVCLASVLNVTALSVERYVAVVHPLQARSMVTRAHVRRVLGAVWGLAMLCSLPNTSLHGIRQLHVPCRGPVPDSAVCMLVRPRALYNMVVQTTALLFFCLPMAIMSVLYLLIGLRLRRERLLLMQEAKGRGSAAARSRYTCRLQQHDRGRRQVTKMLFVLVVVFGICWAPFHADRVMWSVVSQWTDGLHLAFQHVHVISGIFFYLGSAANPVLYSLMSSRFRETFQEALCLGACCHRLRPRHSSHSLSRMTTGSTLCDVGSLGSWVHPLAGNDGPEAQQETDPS", "settings": "NMU1R"}, "168 GPCRs [9]": {"molecular_target": "168 GPCRs (Homo sapiens, UniProt P30556)", "settings": "AGTR1, Antagonist"}, "168 GPCRs [10]": {"molecular_target": "168 GPCRs (Homo sapiens, UniProt P35346)", "sequence (P35346 whole entry)": "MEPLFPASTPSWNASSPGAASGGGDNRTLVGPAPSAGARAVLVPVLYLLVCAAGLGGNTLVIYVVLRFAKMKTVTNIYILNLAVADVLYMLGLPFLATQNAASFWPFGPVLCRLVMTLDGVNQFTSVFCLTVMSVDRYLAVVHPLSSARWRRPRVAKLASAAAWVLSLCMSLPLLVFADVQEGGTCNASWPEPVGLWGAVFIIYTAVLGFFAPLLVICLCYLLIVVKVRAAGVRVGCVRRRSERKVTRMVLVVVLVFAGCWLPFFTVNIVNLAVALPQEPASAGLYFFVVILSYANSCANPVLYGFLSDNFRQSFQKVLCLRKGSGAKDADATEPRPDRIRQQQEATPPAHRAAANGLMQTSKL"}, "168 GPCRs [11]": {"molecular_target": "168 GPCRs (Homo sapiens, UniProt O95977)", "sequence (O95977 whole entry)": "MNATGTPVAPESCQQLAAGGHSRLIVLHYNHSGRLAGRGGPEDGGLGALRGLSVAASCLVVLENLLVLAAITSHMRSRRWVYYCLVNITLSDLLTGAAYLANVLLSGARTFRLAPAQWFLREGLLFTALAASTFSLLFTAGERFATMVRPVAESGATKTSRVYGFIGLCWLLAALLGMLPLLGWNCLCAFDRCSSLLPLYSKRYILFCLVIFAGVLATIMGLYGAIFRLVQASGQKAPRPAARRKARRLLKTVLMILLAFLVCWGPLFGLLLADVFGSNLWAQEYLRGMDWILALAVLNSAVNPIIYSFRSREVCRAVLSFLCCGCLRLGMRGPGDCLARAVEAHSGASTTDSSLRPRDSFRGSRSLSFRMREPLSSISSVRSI"}, "168 GPCRs [12]": {"molecular_target": "168 GPCRs (Homo sapiens, UniProt P30988)", "sequence (P30988 25-474)": "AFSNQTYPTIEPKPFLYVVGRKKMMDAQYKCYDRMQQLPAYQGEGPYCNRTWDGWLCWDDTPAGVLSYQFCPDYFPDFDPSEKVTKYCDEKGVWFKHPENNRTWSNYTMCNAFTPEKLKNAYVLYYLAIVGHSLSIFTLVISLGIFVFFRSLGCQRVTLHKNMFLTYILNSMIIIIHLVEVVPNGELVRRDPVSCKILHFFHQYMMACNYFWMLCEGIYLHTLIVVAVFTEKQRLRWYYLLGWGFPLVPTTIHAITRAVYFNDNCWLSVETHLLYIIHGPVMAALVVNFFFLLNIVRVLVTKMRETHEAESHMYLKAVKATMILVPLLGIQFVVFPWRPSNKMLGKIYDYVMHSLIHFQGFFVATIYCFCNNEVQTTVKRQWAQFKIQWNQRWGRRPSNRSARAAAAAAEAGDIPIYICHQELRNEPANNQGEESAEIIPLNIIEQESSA", "settings": "Antagonist"}, "168 GPCRs [13]": {"molecular_target": "168 GPCRs (Homo sapiens, UniProt P25025)", "sequence (P25025 whole entry)": "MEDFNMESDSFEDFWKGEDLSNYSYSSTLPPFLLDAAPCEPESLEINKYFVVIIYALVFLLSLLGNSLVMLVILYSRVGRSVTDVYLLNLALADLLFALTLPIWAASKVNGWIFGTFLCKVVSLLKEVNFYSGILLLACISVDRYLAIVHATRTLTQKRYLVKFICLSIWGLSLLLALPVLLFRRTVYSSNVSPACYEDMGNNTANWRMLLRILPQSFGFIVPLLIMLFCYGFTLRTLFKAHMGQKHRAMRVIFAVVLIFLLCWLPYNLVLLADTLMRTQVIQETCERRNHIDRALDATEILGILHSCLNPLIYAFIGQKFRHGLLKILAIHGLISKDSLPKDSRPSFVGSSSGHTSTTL"}, "168 GPCRs [14]": {"molecular_target": "168 GPCRs (Homo sapiens, UniProt P51582)"}, "168 GPCRs [15]": {"molecular_target": "168 GPCRs (Homo sapiens, UniProt P41145)"}, "168 GPCRs [16]": {"molecular_target": "168 GPCRs (Homo sapiens, UniProt P08912)", "settings": "CHRM5, Antagonist"}, "168 GPCRs [17]": {"molecular_target": "168 GPCRs (Homo sapiens, UniProt P49238)", "sequence (P49238 whole entry)": "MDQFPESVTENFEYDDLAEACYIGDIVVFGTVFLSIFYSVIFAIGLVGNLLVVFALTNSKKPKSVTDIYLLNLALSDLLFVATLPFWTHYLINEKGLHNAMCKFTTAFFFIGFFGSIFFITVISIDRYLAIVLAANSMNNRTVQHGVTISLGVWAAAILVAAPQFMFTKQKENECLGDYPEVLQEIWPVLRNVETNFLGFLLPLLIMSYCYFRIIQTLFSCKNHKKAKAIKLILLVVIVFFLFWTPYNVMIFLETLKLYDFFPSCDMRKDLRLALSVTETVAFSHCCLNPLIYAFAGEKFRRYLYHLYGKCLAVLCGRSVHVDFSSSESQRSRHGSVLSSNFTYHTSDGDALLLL"}, "168 GPCRs [18]": {"molecular_target": "168 GPCRs (Homo sapiens, UniProt P21554)", "sequence (P21554 whole entry)": "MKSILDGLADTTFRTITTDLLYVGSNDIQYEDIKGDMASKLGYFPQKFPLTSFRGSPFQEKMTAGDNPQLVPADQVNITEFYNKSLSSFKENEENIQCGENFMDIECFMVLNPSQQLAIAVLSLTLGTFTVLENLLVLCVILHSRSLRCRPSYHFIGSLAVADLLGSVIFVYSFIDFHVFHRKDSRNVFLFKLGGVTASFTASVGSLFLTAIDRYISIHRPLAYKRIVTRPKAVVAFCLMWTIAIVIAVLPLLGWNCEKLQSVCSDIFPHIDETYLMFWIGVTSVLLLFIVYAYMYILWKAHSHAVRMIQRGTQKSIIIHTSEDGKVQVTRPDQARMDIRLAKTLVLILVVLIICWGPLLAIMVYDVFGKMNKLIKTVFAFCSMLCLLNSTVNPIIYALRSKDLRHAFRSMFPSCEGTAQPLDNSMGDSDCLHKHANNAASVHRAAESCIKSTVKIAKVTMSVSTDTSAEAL"}, "168 GPCRs [19]": {"molecular_target": "T1, 168 GPCRs (Homo sapiens, UniProt Q96RI0)", "T1 sequence (Q96RI0 18-385)": "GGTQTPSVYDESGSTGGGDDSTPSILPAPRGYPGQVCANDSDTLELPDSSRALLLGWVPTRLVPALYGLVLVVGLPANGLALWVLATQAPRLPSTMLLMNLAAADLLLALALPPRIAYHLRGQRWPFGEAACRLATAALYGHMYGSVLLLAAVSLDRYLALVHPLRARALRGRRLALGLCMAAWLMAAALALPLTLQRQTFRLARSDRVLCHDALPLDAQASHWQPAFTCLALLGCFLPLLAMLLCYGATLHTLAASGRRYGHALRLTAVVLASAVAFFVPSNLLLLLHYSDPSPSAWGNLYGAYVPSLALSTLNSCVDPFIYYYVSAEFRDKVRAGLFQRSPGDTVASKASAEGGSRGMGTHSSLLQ"}, "168 GPCRs [20]": {"molecular_target": "168 GPCRs (Homo sapiens, UniProt Q96P65)", "sequence (Q96P65 whole entry)": "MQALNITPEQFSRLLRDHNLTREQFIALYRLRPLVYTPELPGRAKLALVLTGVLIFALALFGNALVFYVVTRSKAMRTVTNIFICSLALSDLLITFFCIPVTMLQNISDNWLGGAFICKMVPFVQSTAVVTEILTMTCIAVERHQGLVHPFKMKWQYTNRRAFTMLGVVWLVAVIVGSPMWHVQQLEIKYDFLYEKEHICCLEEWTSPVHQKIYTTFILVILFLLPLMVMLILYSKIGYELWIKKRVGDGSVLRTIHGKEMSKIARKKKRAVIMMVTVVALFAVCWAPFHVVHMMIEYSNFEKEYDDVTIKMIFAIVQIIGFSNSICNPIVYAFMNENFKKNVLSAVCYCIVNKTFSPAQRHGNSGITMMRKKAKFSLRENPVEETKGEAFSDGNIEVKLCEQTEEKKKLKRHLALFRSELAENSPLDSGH"}}, "data": [{"smiles": "CNC(C)C(=O)c1ccc2c(c1)OCO2", "note": "(centres unmarked) [methylone, 3,4-methylenedioxy-N-methylcathinone]", "values": [{"measurement": "activity at 10 µM", "setting": "168 GPCRs [1]; RXFP3, Antagonist mode, 10 uM", "value": 32.6, "unit": "%"}, {"measurement": "activity at 1 µM", "setting": "168 GPCRs [1]; RXFP3, Antagonist, 1 uM", "value": 23.1, "unit": "%"}, {"measurement": "activity at 10 µM", "setting": "168 GPCRs [2]; PTHR2, Antagonist mode, 10 uM", "value": -0.2, "unit": "%"}, {"measurement": "activity at 1 µM", "setting": "168 GPCRs [2]; PTHR2, Antagonist, 1 uM", "value": -1, "unit": "%"}, {"measurement": "activity at 10 µM", "setting": "168 GPCRs [3]; Antagonist mode, 10 uM", "value": -8.4, "unit": "%"}, {"measurement": "activity at 1 µM", "setting": "168 GPCRs [3]; Antagonist, 1 uM", "value": -11.8, "unit": "%"}, {"measurement": "activity at 10 µM", "setting": "168 GPCRs [4]; FPR1, Antagonist mode, 10 uM", "value": -11.4, "unit": "%"}, {"measurement": "activity at 1 µM", "setting": "168 GPCRs [4]; FPR1, Antagonist, 1 uM", "value": -4.9, "unit": "%"}, {"measurement": "activity at 10 µM", "setting": "168 GPCRs [5]; OPRD1, Antagonist mode, 10 uM", "value": 3.5, "unit": "%"}, {"measurement": "activity at 1 µM", "setting": "168 GPCRs [5]; OPRD1, Antagonist, 1 uM", "value": -2.7, "unit": "%"}, {"measurement": "activity at 10 µM", "setting": "168 GPCRs [6]; PROKR2, Antagonist mode, 10 uM", "value": 6.8, "unit": "%"}, {"measurement": "activity at 1 µM", "setting": "168 GPCRs [6]; PROKR2, Antagonist, 1 uM", "value": 2, "unit": "%"}, {"measurement": "activity at 10 µM", "setting": "168 GPCRs [7]; NPBWR1, Antagonist mode, 10 uM", "value": 25.1, "unit": "%"}, {"measurement": "activity at 1 µM", "setting": "168 GPCRs [7]; NPBWR1, Antagonist, 1 uM", "value": 17.1, "unit": "%"}, {"measurement": "activity at 10 µM", "setting": "168 GPCRs [8]; Antagonist mode, 10 uM", "value": -9.3, "unit": "%"}, {"measurement": "activity at 1 µM", "setting": "168 GPCRs [8]; Antagonist, 1 uM", "value": -6.7, "unit": "%"}, {"measurement": "activity at 1 µM", "setting": "168 GPCRs [9]; 1 uM", "value": 3.3, "unit": "%"}, {"measurement": "activity at 10 µM", "setting": "168 GPCRs [9]; 10 uM", "value": -1.4, "unit": "%"}, {"measurement": "activity at 10 µM", "setting": "168 GPCRs [10]; SSTR5, Antagonist mode, 10 uM", "value": 5.7, "unit": "%"}, {"measurement": "activity at 1 µM", "setting": "168 GPCRs [10]; SSTR5, Antagonist, 1 uM", "value": 14.7, "unit": "%"}, {"measurement": "activity at 10 µM", "setting": "168 GPCRs [11]; EDG6, Antagonist mode, 10 uM", "value": 7.8, "unit": "%"}, {"measurement": "activity at 1 µM", "setting": "168 GPCRs [11]; EDG6, Antagonist, 1 uM", "value": 13.2, "unit": "%"}, {"measurement": "activity at 1 µM", "setting": "168 GPCRs [12]; CALCR-RAMP2", "value": -10.6, "unit": "%"}, {"measurement": "activity at 10 µM", "setting": "168 GPCRs [12]; CALCR-RAMP2", "value": -19.6, "unit": "%"}, {"measurement": "activity at 1 µM", "setting": "168 GPCRs [12]; CALCR-RAMP3", "value": -8.9, "unit": "%"}, {"measurement": "activity at 10 µM", "setting": "168 GPCRs [12]; CALCR-RAMP3", "value": 3.3, "unit": "%"}, {"measurement": "activity at 1 µM", "setting": "168 GPCRs [12]; CALCR", "value": 5.4, "unit": "%"}, {"measurement": "activity at 10 µM", "setting": "168 GPCRs [12]; CALCR", "value": -4.4, "unit": "%"}, {"measurement": "activity at 10 µM", "setting": "168 GPCRs [13]; CXCR2, Antagonist mode, 10 uM", "value": -1, "unit": "%"}, {"measurement": "activity at 1 µM", "setting": "168 GPCRs [13]; CXCR2, Antagonist, 1 uM", "value": -7.6, "unit": "%"}, {"measurement": "activity at 10 µM", "setting": "168 GPCRs [14]; P2RY4, Antagonist mode, 10 uM", "value": 17.5, "unit": "%"}, {"measurement": "activity at 1 µM", "setting": "168 GPCRs [14]; P2RY4, Antagonist, 1 uM", "value": 15.1, "unit": "%"}, {"measurement": "activity at 10 µM", "setting": "168 GPCRs [15]; OPRK1, Antagonist mode, 10 uM", "value": 10.4, "unit": "%"}, {"measurement": "activity at 1 µM", "setting": "168 GPCRs [15]; OPRK1, Antagonist, 1 uM", "value": 11.8, "unit": "%"}, {"measurement": "activity at 1 µM", "setting": "168 GPCRs [16]; 1 uM", "value": -8, "unit": "%"}, {"measurement": "activity at 10 µM", "setting": "168 GPCRs [16]; 10 uM", "value": -7.6, "unit": "%"}, {"measurement": "activity at 10 µM", "setting": "168 GPCRs [17]; CX3CR1, Antagonist mode, 10 uM", "value": -6.1, "unit": "%"}, {"measurement": "activity at 1 µM", "setting": "168 GPCRs [17]; CX3CR1, Antagonist, 1 uM", "value": -0.2, "unit": "%"}, {"measurement": "activity at 10 µM", "setting": "168 GPCRs [18]; CNR1, Antagonist mode, 10 uM", "value": -17.1, "unit": "%"}, {"measurement": "activity at 1 µM", "setting": "168 GPCRs [18]; CNR1, Antagonist, 1 uM", "value": -3.5, "unit": "%"}, {"measurement": "activity at 10 µM", "setting": "168 GPCRs [19]; F2RL3, Antagonist mode, 10 uM", "value": -6.9, "unit": "%"}, {"measurement": "activity at 1 µM", "setting": "168 GPCRs [19]; F2RL3, Antagonist, 1 uM", "value": -11.3, "unit": "%"}, {"measurement": "activity at 10 µM", "setting": "168 GPCRs [20]; GPR103, Antagonist mode, 10 uM", "value": 7, "unit": "%"}, {"measurement": "activity at 1 µM", "setting": "168 GPCRs [20]; GPR103, Antagonist, 1 uM", "value": 4.1, "unit": "%"}]}]}
